Reference: the NIST ThermoML archive (doi:10.1021/acs.jced.8b00591)

Assay: xn = mol fraction of the nth substance listed
Conditions: 101.3 kPa, Liquid; for viscosity: Falling or rolling sphere viscometry; for mass density: Vibrating tube method

CCn1cc[n+](C)c1.O=S(=O)([N-]S(=O)(=O)C(F)(F)F)C(F)(F)F + COC(=O)OC
Conditions	mass density [kg/m3]	viscosity [mPa·s]
288.15 K, x1 = 0.0989	1199.15	1.579
288.15 K, x1 = 0.1983	1282.85	2.913
288.15 K, x1 = 0.2973	1342.57	4.862
288.15 K, x1 = 0.3958	1387.69	7.561
288.15 K, x1 = 0.496	1423.97	11.21
288.15 K, x1 = 0.5954	1452.55	16.89
288.15 K, x1 = 0.6967	1476.87	22.56
288.15 K, x1 = 0.7982	1497.52	30.07
288.15 K, x1 = 0.9004	1514.5	38.55
288.15 K, x1 = 1	1528.55	49.41
293.15 K, x1 = 0.0989	1193.1	1.451
293.15 K, x1 = 0.1983	1277.11	2.637
293.15 K, x1 = 0.2973	1337.02	4.332
293.15 K, x1 = 0.3958	1382.28	6.635
293.15 K, x1 = 0.496	1418.62	9.698
293.15 K, x1 = 0.5954	1447.28	14.58
293.15 K, x1 = 0.6967	1471.62	19.02
293.15 K, x1 = 0.7982	1492.37	25.12
293.15 K, x1 = 0.9004	1509.39	31.87
293.15 K, x1 = 1	1523.47	40.36
298.15 K, x1 = 0.0989	1187.03	1.348
298.15 K, x1 = 0.1983	1271.35	2.4
298.15 K, x1 = 0.2973	1331.47	3.884
298.15 K, x1 = 0.3958	1376.85	5.878
298.15 K, x1 = 0.496	1413.28	8.484
298.15 K, x1 = 0.5954	1442.02	12.53
298.15 K, x1 = 0.6967	1466.42	16.66
298.15 K, x1 = 0.7982	1487.23	21.25
298.15 K, x1 = 0.9004	1504.28	26.71
298.15 K, x1 = 1	1518.39	33.52
303.15 K, x1 = 0.0989	1180.95	1.25
303.15 K, x1 = 0.1983	1265.59	2.195
303.15 K, x1 = 0.2973	1325.91	3.507
303.15 K, x1 = 0.3958	1371.44	5.241
303.15 K, x1 = 0.496	1407.96	7.472
303.15 K, x1 = 0.5954	1436.78	10.8
303.15 K, x1 = 0.6967	1461.24	14.52
303.15 K, x1 = 0.7982	1482.09	18.37
303.15 K, x1 = 0.9004	1499.19	22.66
303.15 K, x1 = 1	1513.34	28.35
308.15 K, x1 = 0.0989	1174.86	1.162
308.15 K, x1 = 0.1983	1259.83	2.019
308.15 K, x1 = 0.2973	1320.35	3.177
308.15 K, x1 = 0.3958	1366.03	4.706
308.15 K, x1 = 0.496	1402.66	6.64
308.15 K, x1 = 0.5954	1431.55	9.382
308.15 K, x1 = 0.6967	1456.07	12.62
308.15 K, x1 = 0.7982	1476.98	16.22
308.15 K, x1 = 0.9004	1494.12	19.42
308.15 K, x1 = 1	1508.3	24.15
313.15 K, x1 = 0.0989	1168.75	1.086
313.15 K, x1 = 0.1983	1254.07	1.865
313.15 K, x1 = 0.2973	1314.81	2.904
313.15 K, x1 = 0.3958	1360.63	4.247
313.15 K, x1 = 0.496	1397.36	5.946
313.15 K, x1 = 0.5954	1426.34	8.189
313.15 K, x1 = 0.6967	1450.93	10.96
313.15 K, x1 = 0.7982	1471.88	14.22
313.15 K, x1 = 0.9004	1489.06	17.21
313.15 K, x1 = 1	1503.28	20.76
318.15 K, x1 = 0.0989	1162.63	1.016
318.15 K, x1 = 0.1983	1248.3	1.729
318.15 K, x1 = 0.2973	1309.26	2.661
318.15 K, x1 = 0.3958	1355.23	3.831
318.15 K, x1 = 0.496	1392.08	5.358
318.15 K, x1 = 0.5954	1421.14	7.249
318.15 K, x1 = 0.6967	1445.79	9.578
318.15 K, x1 = 0.7982	1466.8	12.43
318.15 K, x1 = 0.9004	1484.02	15.16
318.15 K, x1 = 1	1498.27	17.9
323.15 K, x1 = 0.0989	1156.5	0.954
323.15 K, x1 = 0.1983	1242.54	1.608
323.15 K, x1 = 0.2973	1303.72	2.452
323.15 K, x1 = 0.3958	1349.85	3.512
323.15 K, x1 = 0.496	1386.81	4.857
323.15 K, x1 = 0.5954	1415.92	6.332
323.15 K, x1 = 0.6967	1440.67	8.381
323.15 K, x1 = 0.7982	1461.74	10.9
323.15 K, x1 = 0.9004	1479	13.29
323.15 K, x1 = 1	1493.28	15.93
328.15 K, x1 = 0.0989	1150.34	0.898
328.15 K, x1 = 0.1983	1236.76	1.501
328.15 K, x1 = 0.2973	1298.19	2.268
328.15 K, x1 = 0.3958	1344.47	3.224
328.15 K, x1 = 0.496	1381.55	4.421
328.15 K, x1 = 0.5954	1410.75	5.588
328.15 K, x1 = 0.6967	1435.57	7.456
328.15 K, x1 = 0.7982	1456.69	9.61
328.15 K, x1 = 0.9004	1474	11.68
328.15 K, x1 = 1	1488.31	14.26
